Test results reported in patent publication US20090253669A1, “Substituted Sulfonamide Compounds” (GRUENENTHAL GmbH, priority 2008, published 2009).
Like-named read-outs stand apart in the source and are kept apart here.

Legend:
[1] = target: T1, human B1R receptor (hB1R) (Homo sapiens, UniProt P46663); assay: FLIPR Ca2+ assay on hB1R-transfected CHO K1 cells, antagonistic action; type: cell-based
T1 construct: host or cells: CHO K1 cells
T1 sequence (P46663 1-353): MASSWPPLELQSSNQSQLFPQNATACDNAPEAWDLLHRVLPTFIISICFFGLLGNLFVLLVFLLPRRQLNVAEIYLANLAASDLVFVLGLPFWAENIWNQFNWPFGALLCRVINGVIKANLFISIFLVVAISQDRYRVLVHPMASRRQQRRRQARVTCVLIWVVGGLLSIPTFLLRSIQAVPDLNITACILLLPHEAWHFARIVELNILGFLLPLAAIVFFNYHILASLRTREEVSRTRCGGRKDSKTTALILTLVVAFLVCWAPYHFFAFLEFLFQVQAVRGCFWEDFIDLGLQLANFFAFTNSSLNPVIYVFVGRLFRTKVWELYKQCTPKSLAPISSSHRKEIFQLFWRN

[2] = target: T2, B1R receptor of the rat (rB1R) (Rattus norvegicus, UniProt P97583); assay: FLIPR Ca2+ assay on rB1R-transfected CHO K1 cells, antagonistic action; type: cell-based
T2 construct: host or cells: CHO K1 cells
T2 sequence (P97583 1-337): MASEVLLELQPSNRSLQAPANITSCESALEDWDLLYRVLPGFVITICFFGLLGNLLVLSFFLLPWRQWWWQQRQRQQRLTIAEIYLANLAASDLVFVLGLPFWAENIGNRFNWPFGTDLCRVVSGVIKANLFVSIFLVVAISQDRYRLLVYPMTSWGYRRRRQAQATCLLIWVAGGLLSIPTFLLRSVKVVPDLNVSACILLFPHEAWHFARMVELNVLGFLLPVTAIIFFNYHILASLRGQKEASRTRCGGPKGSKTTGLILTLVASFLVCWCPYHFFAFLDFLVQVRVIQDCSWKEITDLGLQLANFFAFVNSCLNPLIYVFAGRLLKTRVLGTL

[3] = CHO-K1, 10 μM test substance, agonist Lys-Des-Arg9-bradykinin 0.5 nM, % of maximum achievable inhibition, read-out: hB1R [10 μM] % inhibition
[4] = CHO-K1, 10 μM test substance, agonist Des-Arg9-bradykinin 100 nM, % of maximum achievable inhibition, read-out: rB1R [10 μM] % inhibition
[5] = CHO-K1, read-out: hB1R [10 μM] % inhibition
[6] = CHO-K1, read-out: rB1R [10 μM] % inhibition

SMILES | inhibition at 10 µM [1, 3] | inhibition at 10 µM [2, 4] | further results
Cc1cc(S(=O)(=O)N2CCCCC2CCC(=O)N2CCC(c3cccc(F)c3)(N3CCN(C)CC3)CC2)c(C)cc1Cl (centres unmarked) [Compound 135, 3-(1-(4-chloro-2,5-dimethylphenylsulfonyl)piperidin-2-yl)-1-(4-(3-fluorophenyl)-4-(4-methylpiperazin-1-yl)piperidin-1-yl)propan-1-one] | 104% | 37% | 
CNC1(c2ccncc2)CCN(C(=O)COCCN(C)S(=O)(=O)c2c(C)cc(OC)cc2C)CC1 [Compound 209, 4-Methoxy-N,2,6-trimethyl-N-(2-(2-(4-(methylamino)-4-(pyridin-4-yl)piperidin-1-yl)-2-oxoethoxy)ethyl)benzenesulfonamide] |  |  | inhibition at 10 µM [1, 5]: 100%; inhibition at 10 µM [2, 6]: 99%
CN(CCC1CCC(Cc2ccccc2)(N2CCCC2)CC1)C(=O)COCC1CCc2ccccc2N1S(=O)(=O)c1ccc(Cl)c(Cl)c1 (centres unmarked) [Compound 104, N-(2-(4-benzyl-4-(pyrrolidin-1-yl)cyclohexyl)ethyl)-2-((1-(3,4-dichlorophenylsulfonyl)-1,2,3,4-tetrahydroquinolin-2-yl)methoxy)-N-methylacetamide] | 60% | 82% | 
CN(CC1CCC(Cc2ccccc2)(N2CCCC2)CC1)C(=O)COCC1CCc2ccccc2N1S(=O)(=O)c1ccc(Cl)c(Cl)c1 (centres unmarked) [Compound 127, N-((4-benzyl-4-(pyrrolidin-1-yl)cyclohexyl)methyl)-2-((1-(3,4-dichlorophenylsulfonyl)-1,2,3,4-tetrahydroquinolin-2-yl)methoxy)-N-methylacetamide] | 90% | 54% | 
COc1cc(C)c(S(=O)(=O)N2CCCCC2COCC(=O)N2CCC(Cc3ccccc3)(N3CCN(C)CC3)CC2)c(C)c1 (centres unmarked) [Compound 57, 1-(4-benzyl-4-(4-methylpiperazin-1-yl)piperidin-1-yl)-2-((1-(4-methoxy-2,6-dimethylphenylsulfonyl)piperidin-2-yl)methoxy)ethanone] | 100% | 100% | 
COc1cc(C)c(S(=O)(=O)N2CCCCC2COCC(=O)N2CCC(c3ccccc3)(N(C)C)CC2)c(C)c1 (centres unmarked) [Compound 75, 1-(4-(dimethylamino)-4-phenylpiperidin-1-yl)-2-((1-(4-methoxy-2,6-dimethylphenylsulfonyl)piperidin-2-yl)methoxy)ethanone] |  |  | hB1R [10 μM] % inhibition ([1]; 10 μM test substance, agonist Lys-Des-Arg9-bradykinin 0.5 nM, % of maximum achievable inhibition): 103%; rB1R [10 μM] % inhibition ([2]; 10 μM test substance, agonist Des-Arg9-bradykinin 100 nM, % of maximum achievable inhibition): 99%
CN1CCN(C2(CCc3ccccc3)CCN(C(=O)CC3CCCCN3S(=O)(=O)c3cccc(C(F)(F)F)c3)CC2)CC1 (centres unmarked) [Compound 119, 1-(4-(4-methylpiperazin-1-yl)-4-phenethylpiperidin-1-yl)-2-(1-(3-(trifluoromethyl)phenylsulfonyl)piperidin-2-yl)ethanone] | 90% | 69% | 
Cc1cc(S(=O)(=O)N2CCCCC2CCC(=O)N(C)CCC2CCC(CCc3ccccc3)(N(C)C)CC2)c(C)cc1Cl (centres unmarked) [Compound 132, 3-(1-(4-chloro-2,5-dimethylphenylsulfonyl)piperidin-2-yl)-N-(2-(4-(dimethylamino)-4-phenethylcyclohexyl)ethyl)-N-methylpropanamide] | 103% | 43% | 
COc1cc(C)c(S(=O)(=O)N(C)CCOCC(=O)N2CCC(c3ccc(F)cc3)(N3CCN(C)CC3)CC2)c(C)c1 [Compound 42, N-(2-(2-(4-(4-fluorophenyl)-4-(4-methylpiperazin-1-yl)piperidin-1-yl)-2-oxoethoxy)ethyl)-4-methoxy-N,2,6-trimethylbenzenesulfonamide] | 105% | 101% | 
CN(CCC1CCC(CCc2ccccc2)(N2CCCC2)CC1)C(=O)CC(NS(=O)(=O)c1ccc2ccccc2c1)c1ccccc1 (centres unmarked) [Compound 114, N-methyl-3-(naphthalene-2-sulfonamido)-N-(2-(4-phenethyl-4-(pyrrolidin-1-yl)cyclohexyl)ethyl)-3-phenylpropanamide] | 96% | 73% | 
CN1CCN(C2(c3cccc(F)c3)CCN(C(=O)CCCC3CCCCN3S(=O)(=O)c3ccc4ccccc4c3)CC2)CC1 (centres unmarked) [Compound 216, 1-(4-(3-Fluorophenyl)-4-(4-methylpiperazin-1-yl)piperidin-1-yl)-4-(1-(naphthalen-2-ylsulfonyl)piperidin-2-yl)butan-1-one] | 100% | 95% | 
O=C(COCC1CCCCN1S(=O)(=O)c1c(Cl)cc(Cl)cc1Cl)NC1CCC(Cc2ccccc2)(N2CCCC2)CC1 (centres unmarked) [Compound 163, N-(4-benzyl-4-(pyrrolidin-1-yl)cyclohexyl)-2-((1-(2,4,6-trichlorophenylsulfonyl)piperidin-2-yl)methoxy)acetamide] | 84% | 93% | 
COc1cc(C)c(S(=O)(=O)N2CCCCC2COCC(=O)N(C)CCCC2CCC(CCc3ccccc3)(N3CCCC3)CC2)c(C)c1 (centres unmarked) [Compound 59, 2-((1-(4-methoxy-2,6-dimethylphenylsulfonyl)piperidin-2-yl)methoxy)-N-methyl-N-(3-(4-phenethyl-4-(pyrrolidin-1-yl)cyclohexyl)propyl)acetamide] | 101% | 100% | 
COc1cc(C)c(S(=O)(=O)N(C)CCOCC(=O)NC2CCC(c3ccccc3)(N3CCOCC3)CC2)c(C)c1 (centres unmarked) [Compound 167, 2-(2-(4-methoxy-N,2,6-trimethylphenylsulfonamido)ethoxy)-N-(4-morpholino-4-phenylcyclohexyl)acetamide] | 100% | 88% | 
CN1CCN(C2(c3cccc(F)c3)CCN(C(=O)CCCC3CCCCN3S(=O)(=O)c3ccccc3C(F)(F)F)CC2)CC1 (centres unmarked) [Compound 213, 1-(4-(3-Fluorophenyl)-4-(4-methylpiperazin-1-yl)piperidin-1-yl)-4-(1-(2-(trifluoromethyl)phenylsulfonyl)piperidin-2-yl)butan-1-one] |  |  | inhibition at 10 µM [1, 5]: 100%; inhibition at 10 µM [2, 6]: 100%
CN(CCC1CCC(CCc2ccccc2)(N(C)C)CC1)C(=O)CC1CCCCN1S(=O)(=O)c1cccc(C(F)(F)F)c1 (centres unmarked) [Compound 76, N-(2-(4-(dimethylamino)-4-phenethylcyclohexyl)ethyl)-N-methyl-2-(1-(3-(trifluoromethyl)phenylsulfonyl)piperidin-2-yl)acetamide] | 98% | 99% | 
CN1CCN(C2(CCc3ccccc3)CCN(C(=O)COCC3CCc4ccccc4N3S(=O)(=O)c3ccc(Cl)c(Cl)c3)CC2)CC1 (centres unmarked) [Compound 116, 2-((1-(3,4-dichlorophenylsulfonyl)-1,2,3,4-tetrahydroquinolin-2-yl)methoxy)-1-(4-(4-methylpiperazin-1-yl)-4-phenethylpiperidin-1-yl)ethanone] | 57% | 71% | 
COc1cc(C)c(S(=O)(=O)N(C)CCOCC(=O)N(C)CCC2CCC(Cc3ccccc3)(N(C)C)CC2)c(C)c1 (centres unmarked) [Compound 53, N-(2-(4-benzyl-4-(dimethylamino)cyclohexyl)ethyl)-2-(2-(4-methoxy-N,2,6-trimethylphenylsulfonamido)ethoxy)-N-methylacetamide] | 103% | 100% | 
CN(CCOCC(=O)NC1CCC(Cc2ccccc2)(N2CCCC2)CC1)S(=O)(=O)c1c(Cl)cc(Cl)cc1Cl (centres unmarked) [Compound 189, N-(4-benzyl-4-(pyrrolidin-1-yl)cyclohexyl)-2-(2-(2,4,6-trichloro-N-methylphenylsulfonamido)ethoxy)acetamide] | 65% | 60% | 
CN1CCN(C2(c3cccc(F)c3)CCN(C(=O)COCC3CCc4ccccc4N3S(=O)(=O)c3ccc(Cl)c(Cl)c3)CC2)CC1 (centres unmarked) [Compound 103, 2-((1-(3,4-dichlorophenylsulfonyl)-1,2,3,4-tetrahydroquinolin-2-yl)methoxy)-1-(4-(3-fluorophenyl)-4-(4-methylpiperazin-1-yl)piperidin-1-yl)ethanone] | 73% | 82% | 
Cc1cc(S(=O)(=O)N2CCCCC2CCC(=O)N2CCC(c3ccc(F)cc3)(N3CCN(C)CC3)CC2)c(C)cc1Cl (centres unmarked) [Compound 138, 3-(1-(4-chloro-2,5-dimethylphenylsulfonyl)piperidin-2-yl)-1-(4-(4-fluorophenyl)-4-(4-methylpiperazin-1-yl)piperidin-1-yl)propan-1-one] | 102% | 28% | 
COc1cc(C)c(S(=O)(=O)N2CCCC2COCC(=O)N(C)CC2CCC(CCc3ccccc3)(N3CCN(C)CC3)CC2)c(C)c1 (centres unmarked) [Compound 148, 2-((1-(4-methoxy-2,6-dimethylphenylsulfonyl)pyrrolidin-2-yl)methoxy)-N-methyl-N-((4-(4-methylpiperazin-1-yl)-4-phenethylcyclohexyl)methyl)acetamide] | 102% | 106% | 
